Measured values from patent US5185341A, “Substituted 5-(phenoxyalkanoylamino)-uracil compounds, methods for making same and pharmaceutical compositions based on same” (Arzneimittelwerk Dresden GMBH, priority 1990, dated 1993).
Structures can show the parent of a compound that is named as a salt.

Legend:
[1] = Antibiotiki 24(1979) p.659; cited from earlier work
[2] = Arzneimittelforschung 27(1977) p. 132; cited from earlier work
[3] = Toxicity test in mouse (LD50, intraperitoneal application); conditions: in vivo, ip
Source text: The results of these toxicity tests on mouse and rat are shown in the following table as well as the effective dosage: […]

Structure (SMILES) | antibiotic action [1] | protection against radiation [2] | LD50 [3] [mg/kg]
Cc1cc(=O)[nH]c(=O)[nH]1 [6-methyluracil] | has an antibiotic action | can protect against radiation | 
Cc1[nH]c(=O)n(C)c(=O)c1NC(=O)COc1ccc(Cl)cc1 [Example 1, 5-(p-Chlorophenoxy-acetamido)-1,4-dimethyluracil] |  |  | > 1700
Cc1[nH]c(=O)[nH]c(=O)c1NC(=O)COc1ccc(Cl)cc1 [Example 2, 5-(p-Chlorophenoxy-acetamido)-4-methyluracil] |  |  | 800
Cc1c(NC(=O)COc2ccc(Cl)cc2)c(=O)n(C)c(=O)n1C [Example 3] |  |  | > 1700
Cn1c(N)c(NC(=O)COc2ccc(Cl)cc2)c(=O)n(C)c1=O [Example 4, 4-amino-5-(p-Chlorophenoxy-acetamido)-1,3-dimethyluracil] |  |  | > 1700
CN(C)CCOC(=O)COc1ccc(Cl)cc1 [Meclofenoxate HCl] |  |  | 856
NC(=O)CN1CCCC1=O [Piracetam] |  |  | > 2000
